From ChEMBL document CHEMBL1275532, “Potential for hepatitis C virus resistance to nitazoxanide or tizoxanide” (Antimicrob Agents Chemother, 2008)

Experiments:
Hepatitis C virus [1] = assay: Antiviral activity against HCV genotype 1b in NTZ-11 replicon cell after 4 days by blot hybridization analysis; type: functional, organism-based, Hepacivirus hominis; details: NTZ-11, 96 h
[2] = Selectivity Index, ratio of CC50 for RP7 cell harboring HCV genotype 1b to EC50 for HCV genotype 1b in RP7 replicon cell
Hepatitis C virus [3] = assay: Antiviral activity against HCV genotype 1b obtained from RP7 cells infected in Huh7.5 cell assessed as viral-induced colony formation efficiency at 10 uM after 10 to 14 days in presence of 125 ug/ml G418; type: functional, Hepacivirus hominis
Hepatitis C virus [4] = assay: Antiviral activity against HCV genotype 1b in RP7 replicon cell after 4 days by blot hybridization analysis; type: functional, organism-based, Hepacivirus hominis; details: 96 h
[5] = Cytotoxicity against human TIZ-9 cell harboring HCV genotype 1b after 4 days by neutral red dye uptake assay; type: cell-based; details: TIZ-9 cells harboring HCV genotype 1b
[6] = Selectivity Index, ratio of CC50 for TIZ-9 cell harboring HCV genotype 1b to EC50 for HCV genotype 1b in TIZ-9 replicon cell
[7] = Selectivity Index, ratio of CC50 for NTZ-11 cell harboring HCV genotype 1b to EC50 for HCV genotype 1b in NTZ-11 replicon cell
Hepatitis C virus [8] = assay: Antiviral activity against HCV genotype 1b obtained from NTZ-11 cells infected in Huh7.5 cell assessed as viral-induced colony formation efficiency at 10 uM after 10 to 14 days in presence of 125 ug/ml G418; type: functional, Hepacivirus hominis
Hepatitis C virus [9] = assay: Antiviral activity against HCV genotype 1b in TIZ-9 replicon cell after 4 days by blot hybridization analysis; type: functional, organism-based, Hepacivirus hominis; details: TIZ-9, 96 h
Hepatitis C virus [10] = assay: Antiviral activity against HCV genotype 1b obtained from TIZ-9 cells infected in Huh7.5 cell assessed as viral-induced colony formation efficiency at 10 uM after 10 to 14 days in presence of 125 ug/ml G418; type: functional, Hepacivirus hominis
[11] = Cytotoxicity against human NTZ-11 cell harboring HCV genotype 1b after 4 days by neutral red dye uptake assay; type: cell-based; details: NTZ-11 cells harboring HCV genotype 1b
[12] = Cytotoxicity against human RP7 cell harboring HCV genotype 1b after 4 days by neutral red dye uptake assay; type: cell-based; details: RP7 cells harboring HCV genotype 1b
Hepatitis C virus [13] = assay: Antiviral activity against HCV genotype 1a in replicon system; type: functional, organism-based, Hepacivirus hominis; details: subtype 1a
Hepatitis C virus [14] = assay: Antiviral activity against HCV genotype 1b obtained from TIZ-9 cells infected in Huh7.5 cell assessed as viral-induced colony formation efficiency at 1 uM after 10 to 14 days in presence of 125 ug/ml G418; type: functional, Hepacivirus hominis
Hepatitis C virus [15] = assay: Antiviral activity against HCV genotype 1b in replicon system; type: functional, organism-based, Hepacivirus hominis
Hepatitis C virus [16] = assay: Antiviral activity against HCV genotype 1b obtained from RP7 cells infected in Huh7.5 cell assessed as viral-induced colony formation efficiency at 1 uM after 10 to 14 days in presence of 125 ug/ml G418; type: functional, Hepacivirus hominis
Hepatitis C virus [17] = assay: Antiviral activity against HCV genotype 1b obtained from NTZ-11 cells infected in Huh7.5 cell assessed as viral-induced colony formation efficiency at 1 uM after 10 to 14 days in presence of 125 ug/ml G418; type: functional, Hepacivirus hominis

| SMILES | EC50 (Hepatitis C virus [1]) [µM] | EC90 (Hepatitis C virus [1]) [µM] | Ratio CC50/EC50 [2] | Activity (Hepatitis C virus [3]) [%] | EC50 (Hepatitis C virus [4]) [µM] | EC90 (Hepatitis C virus [4]) [µM] | CC50 at 96 h [5] [µM] | Ratio CC50/EC50 [6] | Ratio CC50/EC50 [7] | Activity (Hepatitis C virus [8]) [%] | EC50 (Hepatitis C virus [9]) [µM] | EC90 (Hepatitis C virus [9]) [µM] | Activity (Hepatitis C virus [10]) [%] | CC50 at 96 h [11] [µM] | CC50 at 96 h [12] [µM] | EC50 (Hepatitis C virus [13]) [µM] | Activity (Hepatitis C virus [14]) [%] | EC50 (Hepatitis C virus [15]) [µM] | Activity (Hepatitis C virus [16]) [%] | Activity (Hepatitis C virus [17]) [%] |
| --- | --- | --- | --- | --- | --- | --- | --- | --- | --- | --- | --- | --- | --- | --- | --- | --- | --- | --- | --- | --- |
| C[C@@]1(O)[C@H](O)[C@@H](CO)O[C@H]1n1ccc(N)nc1=O | 1.9 | 6.1 | >150 | 10 | 2 | 9 | > 300 | >136 | >158 | 13 | 2.2 | 8.9 | 9 | > 300 | > 300 | – | – | – | – | – |
| CC(=O)Oc1ccccc1C(=O)Nc1ncc([N+](=O)[O-])s1 [NITAZOXANIDE] | 1.2 | 17 | 238 | – | 0.16 | 1.2 | 97 | 65 | 57 | – | 1.5 | 26 | – | 68 | 38 | 0.13 | – | – | – | – |
| NC(=O)c1ncn([C@@H]2O[C@H](CO)[C@@H](O)[C@H]2O)n1 [RIBAVIRIN] | 47 | 107 | 1.1 | – | 69 | 122 | 95 | 1.8 | 1.4 | – | 52 | 123 | – | 66 | 77 | – | – | – | – | – |
| O=C(Nc1ncc([N+](=O)[O-])s1)c1ccccc1O [TIZOXANIDE] | 1.1 | 18 | 167 | 0 | 0.15 | 0.94 | 92 | 46 | 67 | 0 | 2 | 35 | 0 | 74 | 25 | – | 12 | 0.15 | 7 | 8 |
